According to patent US6596724B2, “Oxadiazole and thiadiazole derivatives of dihydropyridine NPY antagonists” (Bristol-Myers Squibb Company, priority 2000, dated 2003):
Values belong to the compound of their own block, whether it stands above or below them.

How the values were obtained:
[1] = system: NPY-induced increase in intracellular Ca++ in SK-N-MC cells; settings: cited from earlier work
[2] = system: NPY-induced pressor response; settings: pithed rat; cited from earlier work
[3] = target: T1, I-125 Bolton-Hunter labeled NPY in human neuroblastoma cells (SK-N-MC) (Homo sapiens, UniProt P25929); settings: cited from earlier work
T1 construct: displaces I-125 Bolton-Hunter labeled NPY in human neuroblastoma cells (SK-N-MC); host or cells: SK-N-MC human neuroblastoma cells (endogenous receptor)
T1 sequence (P25929 1-384): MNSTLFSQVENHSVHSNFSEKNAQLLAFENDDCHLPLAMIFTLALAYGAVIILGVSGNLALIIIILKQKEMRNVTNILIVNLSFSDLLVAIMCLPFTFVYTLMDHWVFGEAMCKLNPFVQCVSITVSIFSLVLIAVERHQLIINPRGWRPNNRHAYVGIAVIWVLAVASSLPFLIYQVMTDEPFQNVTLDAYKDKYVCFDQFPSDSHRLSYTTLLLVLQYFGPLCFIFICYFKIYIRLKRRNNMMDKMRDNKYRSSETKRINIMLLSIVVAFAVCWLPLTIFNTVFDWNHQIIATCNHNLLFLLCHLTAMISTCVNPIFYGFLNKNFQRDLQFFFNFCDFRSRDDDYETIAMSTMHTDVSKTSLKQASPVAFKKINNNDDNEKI

[4] = system: NPY-induced contractions in guinea pig basilar artery; settings: cited from earlier work
[5] = system: NPY-related increases in diastolic blood pressure; settings: anesthetized guinea pig model; cited from earlier work
[6] = target: T2, I-125 labeled NPY and PYY in human neuroblastoma cells (Homo sapiens, UniProt P25929); settings: cited from earlier work
T2 construct: displacing I-125 labeled NPY and PYY in human neuroblastoma cells
T2 sequence (P25929 1-384): T1 sequence (P25929 1-384)

melting point: 125 to 130 °C
SMILES: COC(=O)C1=C(C)NC(C)=C(C(=O)OC)C1c1cccc(NC(=S)NNC(=O)CN2CCC(c3ccccc3)CC2)c1 [Example 19, 4-[3-[[[2-[(4-Phenyl-1-piperidinyl)acetyl]-hydrazino]-carbonothioyl]amino]phenyl]1,4-dihydro-2,6-dimethyl-3,5-pyridinedicarboxylic acid, dimethyl ester]

melting point: 114 to 120 °C
SMILES: COC(=O)C1=C(C)NC(C)=C(C(=O)OC)C1c1ccc(F)c(NC(=S)NNC(=O)CN2CCC(c3cccc(OC)c3)CC2)c1 [Example 22, 4-[4-Fluoro-3-[[[2-[[4-(3-methoxyphenyl)-1-piperidinyl]acetyl]-hydrazino]-carbonothioyl]amino]phenyl]1,4-dihydro-2,6-dimethyl-3,5-pyridinedicarboxylic acid, dimethyl ester]

melting point: 138 to 143 °C
SMILES: COC(=O)C1=C(C)NC(C)=C(C(=O)OC)C1c1cccc(NC(=O)NNC(=O)CN2CCC(c3ccccc3)CC2)c1 [Example 18, 4-[3-[[[2-[(4-Phenyl-1-piperidinyl)acetyl]-hydrazino]-carbonyl]amino]phenyl]1,4-dihydro-2,6-dimethyl-3,5-pyridinedicarboxylic acid, dimethyl ester]

More lines, now with the values behind:

SMILES: COC(=O)C1=C(C)NC(C)=C(C(=O)OC)C1c1cccc(NC(=S)NNC(=O)CN2CCC(c3cccc(OC)c3)CC2)c1 [Example 20, 4-[3-[[[2-[[4-(3-Methoxyphenyl)-1-piperidinyl)acetyl]-hydrazino]-carbonothioyl]amino]phenyl]1,4-dihydro-2,6-dimethyl-3,5-pyridinedicarboxylic acid, dimethyl ester]
melting point: 113 to 116 °C

SMILES: NC(N)=NCCC[C@@H](NC(=O)C(c1ccccc1)c1ccccc1)C(=O)NCc1ccc(O)cc1 [BIBP 3226]
antagonism of NPY-induced increase in intracellular Ca++ [1]: antagonized
antagonism of NPY-induced pressor response [2]: antagonizing
displacement of I-125 Bolton-Hunter labeled NPY [3]: displaces

SMILES: O=P(O)(O)OC1[C@H](OP(=O)(O)O)[C@H](O)C(O)[C@H](O)[C@H]1OP(=O)(O)O (stereo partly drawn) [D-Myo-inositol-1,2,6-triphosphate]
antagonism of NPY-induced contractions [4]: potent but non-competitive antagonist

SMILES: CN(C)CC1CCC(CN=C(N)c2ccc(C[C@@H](NC(=O)[C@@H](Cc3ccccc3)NS(=O)(=O)c3ccc4ccccc4c3)C(=O)N3CCCC3)cc2)CC1 (stereo partly shown) [SR 120819A]
antagonism of NPY-related increases in diastolic blood pressure [5]: antagonized
displacement of I-125 labeled NPY and PYY [6]: displacing
